Measured values taken from patent US7846434B2, “Materials and methods for improved immunoglycoproteins” (Trubion Pharmaceuticals, Inc., priority 2006, dated 2010).
Where “and” joins values, the source holds several entries; their conditions need not be identical. Equal entries are not always repeated.

Legend:
Type in all cases: cell-based, Chinese hamster
[1] = test system: CHO cells expressing TRU-016; test: Growth and viability of CHO cells expressing TRU-016 cultured with carbohydrate modifier; details: castanospermine up to 1000 μM, up to 144 hours
Procedure: For shake flask runs, log phase host cells were seeded in shake flasks at 100,000 cells/ml with carbohydrate modifier at the concentration to be tested, and optionally with methotrexate (MTX) @ 50 nM.
Cells were seeded at 3×10^6/mL in 1350 mL of Ex-Cell 302 culture media (SATC Biosciences; with added non-essential amino acids, pyrucate, L-glutamine, pen/strep, HT Supplement and insulin, all from Invitrogen) at t=0 and brought to 5 L total volume at T>=72 hours. The cells were incubated at 37° C. and 5% carbon dioxide and monitored for growth and viability daily starting at day 6-7. Supernatants were typically harvested at day 10-12 when cell viability dropped below 60%.
Na-Azide was added to 0.02%, cells were removed by centrifugation and supernatant was filter sterilized through a 0.22 uM filter. Some assays described in other examples herein were performed on the supernatants as indicated, while other assays were performed on material that underwent further protein A purification. […] Cells were incubated at 37° C. and 5% carbon dioxide and monitored daily for growth and viability. […]

[2] = test system: CHO-K1 cells transfected with TRU-016; test: Effect of castanospermine on CHO-K1 TRU-016 production, shake flasks; details: for Average TRU-016 Produced (μg/mL) ± SD: duplicate flasks; for Viability at Harvest (%): harvest day 10, listed as CS
Procedure: Prior to initiation of the experiments, CHO-K1 cells transfected with TRU-016 (CAS029f053) were grown in vented shake flasks in CD-CHO chemically-defined media (GIBCO-Invitrogen) supplemented with 25 uM methionine sulfoximine (MSX) at 37° C. and 5% carbon dioxide in a humidified incubator. Shaker speed was set at 125 RPM. A 400 mM stock concentration of castanospermine (Alexis Biochemicals) was prepared by dilution of the CS in sterile, distilled/deionized water (MediaTech) followed by filtration through a 13 mm Acrodisc® with a 0.2 μm HT Tuffryn membrane (Pall Corporation). Stock solution was aliquoted into sterile, O-ringed, 0.5 mL microcentrifuge tubes (Fisherbrand, Fisher Scientific) and frozen at −20° C. Approximately 1 hour prior to initiation of experiments, needed aliquots were thawed at room temperature and the contents of each vial mixed well by vortexing.
For the experiment, cells in log phase growth were seeded in the above medium into a volume of 60 mL in 250 mL shaker flasks at a density of 220,000 cells/mL and CS added at the concentration to be tested. Final CS concentrations of 800 μM, 400 μM, 200 μM, 100 μM, 50 μM, 25 μM and 0 μM were each tested in duplicate flasks. All shake flasks were incubated on a shaker platform set at 125 RPM at 37° C. and 5% carbon dioxide in a humidified incubator. Cultures were monitored at least every other day for viable cell density and overall cell viability.
Cultures were harvested on day 10 when overall cell viability was 49-62%. Cells and cellular debris were removed by centrifugation in a Sorvall Super T21 at 3000 rpm for 20 minutes after which the supernatant was sterile filtered through a Millipore Steriflip unit with a 0.22 μm Millipore Express Plus membrane and stored at 4° C. until purified.

[3] = test system: DG44 CHO cells transfected with TRU-016; test: Effect of castanospermine on DG44 CHO TRU-016 production, 3 L bioreactors; details: for TRU-016 Produced as a % of Control: control average 427.7 ug/mL; for Viability at Harvest (%): harvest day 8
Procedure: Prior to growth in bioreactors, DG44 CHO cells transfected with TRU-016 were grown in the absence of castanospermine in vented shake flasks as described in Example 8.
For the bioreactor run, 3 L Applikon bioreactors were used. Growth media for cells was as described in Example 8 except that there was no methotrexate present. Starting culture volume for each bioreactor was 1700 mLs with a starting density of 3.5×10^5 cells/mL. A total of eight bioreactors were run in pairs with CS at 0 μM, 300 μM, 350 μM and 400 μM final concentration (one of the 400 μM CS bioreactors was lost to contamination on day 2 of culture). Castanospermine was added at the initiation of culture in the bioreactors with no further addition during the culture period. Other culture conditions included a temperature set point of 37° C., pH set point of 6.9 and dissolved O2 set point of 50%. Bioreactors were run in a fed-batch mode with L-glutamine and glucose added on an as needed basis. Soy hydrolysate (CHO Feed Bioreactor Supplement—C1615—Sigma) was added at 1% of starting culture volume on days 2, 4 and 6. Bioreactors were sampled daily for viable cell density, percent viable cells, media chemistries and osmolality. All cultures were harvested on day 8 when overall cell viability ranged from 39-50%.

Q: What does the source list for `O[C@H]1[C@H](O)[C@@H](O)CN2CC[C@H](O)[C@H]12` [castanospermine]?
A: cell counts [1]: did not affect; percent cell viability [1]: did not affect; CS concentration at which the maximal suppressive effect on TRU-016 production was reached ([2]; CHO-K1): 200 µM; Average ICA (10^6 cells * days/mL) ± SD ([2]; CS 25 μM): 40.8 ± 0.4 10^6 cells * days/mL; Average Specific Productivity (pg/cell/day) ± SD ([2]; CS 25 μM): 10.29 ± 0.18 pg/cell/day; Average TRU-016 Produced as a % of Control ± SD ([2]; CS 25 μM): 96.7 ± 2.6%; Average TRU-016 Produced (μg/mL) ± SD ([2]; CS 25 μM): 419.36 ± 11.1 µg/mL; Viability at Harvest (%) ([2]; CS 25 μM): 57.7% and 53.0%; Average ICA (10^6 cells * days/mL) ± SD ([2]; CS 50 μM): 41.6 ± 0.9 10^6 cells * days/mL; Average Specific Productivity (pg/cell/day) ± SD ([2]; CS 50 μM): 10.18 ± 0.45 pg/cell/day; Average TRU-016 Produced as a % of Control ± SD ([2]; CS 50 μM): 97.5 ± 6.4%; Average TRU-016 Produced (μg/mL) ± SD ([2]; CS 50 μM): 422.84 ± 27.8 µg/mL; Viability at Harvest (%) ([2]; CS 50 μM): 61.3%; Average ICA (10^6 cells * days/mL) ± SD ([2]; CS 100 μM): 39.0 ± 0.4 10^6 cells * days/mL; Average Specific Productivity (pg/cell/day) ± SD ([2]; CS 100 μM): 10.48 ± 0.07 pg/cell/day; Average TRU-016 Produced as a % of Control ± SD ([2]; CS 100 μM): 94.3 ± 1.6%; Average TRU-016 Produced (μg/mL) ± SD ([2]; CS 100 μM): 408.60 ± 6.9 µg/mL; Viability at Harvest (%) ([2]; CS 100 μM): 61.2% and 55.1%; Average ICA (10^6 cells * days/mL) ± SD ([2]; CS 200 μM): 40.1 ± 2.3 10^6 cells * days/mL; Average Specific Productivity (pg/cell/day) ± SD ([2]; CS 200 μM): 10.04 ± 0.69 pg/cell/day; Average TRU-016 Produced as a % of Control ± SD ([2]; CS 200 μM): 92.7 ± 1.2%; Average TRU-016 Produced (μg/mL) ± SD ([2]; CS 200 μM): 401.93 ± 5.0 µg/mL; Viability at Harvest (%) ([2]; CS 200 μM): 61.8% and 56.4%; Average ICA (10^6 cells * days/mL) ± SD ([2]; CS 400 μM): 37.6 ± 0.3 10^6 cells * days/mL; Average Specific Productivity (pg/cell/day) ± SD ([2]; CS 400 μM): 10.68 ± 0.28 pg/cell/day; Average TRU-016 Produced as a % of Control ± SD ([2]; CS 400 μM): 92.6 ± 3.1%; Average TRU-016 Produced (μg/mL) ± SD ([2]; CS 400 μM): 401.22 ± 13.3 µg/mL; Viability at Harvest (%) ([2]; CS 400 μM): 56.1% and 62.4%; Average ICA (10^6 cells * days/mL) ± SD ([2]; CS 800 μM): 37.6 ± 1.0 10^6 cells * days/mL; Average Specific Productivity (pg/cell/day) ± SD ([2]; CS 800 μM): 10.68 ± 0.40 pg/cell/day; Average TRU-016 Produced as a % of Control ± SD ([2]; CS 800 μM): 92.5 ± 1.0%; Average TRU-016 Produced (μg/mL) ± SD ([2]; CS 800 μM): 401.14 ± 4.1 µg/mL; Viability at Harvest (%) ([2]; CS 800 μM): 58.1% and 59.7%; average specific productivity of the cells ([2]; CS 25-800 μM): no significant effect; overall cell viability or growth (integral cell area) ([2]; CS 25-800 μM): did not appear to significantly affect; decrease in production of TRU-016 relative to control ([2]; CS 25-800 μM, even at the highest concentration of 800 μM): ≤ 7.5%; TRU-016 Produced as a % of Control ([3]; CS 300 μM, listed as CS): 68.0% and 75.1%; Viability at Harvest (%) ([3]; CS 300 μM, listed as CS): 48.8% and 42.4%; ICA (10^6 cells * days/mL) ([3]; CS 300 μM, listed as CS): 47.5 10^6 cells * days/mL and 46.2 10^6 cells * days/mL; Specific Productivity (pg/cell/day) ([3]; CS 300 μM, listed as CS): 6.12 pg/cell/day and 6.96 pg/cell/day; TRU-016 Produced ([3]; CS 300 μM, listed as CS): 291.0 µg/mL and 321.3 µg/mL; TRU-016 Produced as a % of Control ([3]; CS 350 μM, listed as CS): 73.6% and 74.4%; Viability at Harvest (%) ([3]; CS 350 μM, listed as CS): 39.0% and 41.6%; ICA (10^6 cells * days/mL) ([3]; CS 350 μM, listed as CS): 46.6 10^6 cells * days/mL and 45.5 10^6 cells * days/mL; Specific Productivity (pg/cell/day) ([3]; CS 350 μM, listed as CS): 6.75 pg/cell/day and 7.00 pg/cell/day; TRU-016 Produced ([3]; CS 350 μM, listed as CS): 314.7 µg/mL and 318.1 µg/mL; ICA (10^6 cells * days/mL) ([3]; CS 400 μM): 47.9 10^6 cells * days/mL; Specific Productivity (pg/cell/day) ([3]; CS 400 μM): 6.49 pg/cell/day; TRU-016 Produced ([3]; CS 400 μM): 311.0 µg/mL; TRU-016 Produced as a % of Control ([3]; CS 400 μM): 72.7%; Viability at Harvest (%) ([3]; CS 400 μM): 50.4%; suppression of TRU-016 production relative to non-treated control bioreactors ([3]; CS 300-400 μM): 24.9-32%; cell growth and viability in the bioreactors ([3]; CS 300-400 μM vs no CS): quite comparable
